Data from US20080089862A1, “PROTEASE INHIBITORS AND METHOD OF SCREENING THEREOF” (priority 2005, published 2008).
No end group written: not given here.

Target: T1, MBP-scNS3 (Hepatitis C virus genotype 1b, UniProt P26663)
T1 construct: made in house
Assay: Bacterial genetic screening, blue/white colonies on X-gal indicative plates
Type: cell-based, Hepatitis C virus (HCV) genotype Ib
Settings: IPTG-induced test bacteria (pMGT14); blue = NS3 inhibited
Excerpt: Applying the bacterial genetic screening to isolate NS3-inhibitory scFvs. Affinity selected phages were pooled and used as source for scFv DNA by digestion of phagemid DNA with Ncol and Notl. The pooled insert DNA was cloned into pMALc-NN that had been digested with the same enzymes essentially as described (Bach et al., 2001). In pMALc-NN, expression of MBP-scFvs is under the control of an IPTG-inducible tac promoter and the plasmid carries an ampicillin resistance cassette and the colEl origin of replication and is thus compatible with pMGT14 or pMGT15. The plasmid pool was introduced into E. coli TG-I cells already containing the pMGT14 plasmid. The transformants were plated to yield individual colonies on 2xYT agar plates supplemented with 0.004% (w/v) X-gal, 100 μg/ml ampicillin, 50 μg/ml kanamycin, 0.2% arabinose and 0.05 mM IPTG. Blue colonies were picked and pMALc-NN-scFv DNA was recovered and re-introduced into pMGT14 expressing cells to validate the results of the initial screening.
The expression platform was constructed as follows: C-terminal peptides were introduced by PCR using pMALc-NN (Bach et al., 2001) as template and recloning into the same backbone. The ligated vectors were introduced into the “bacterial test strain” and IPTG induction was used to overexpress the peptides. […]

Sequence	colony colour on X-gal plates
DYKDDDDK [FLAG epitope]	colorless
EASEDVVC (not fully specified) ["product-like" peptide (NS5A/B site P side), control construct]	blue
